Consider 21 compounds from patent US9120749B2, “Quinoline derivatives and MELK inhibitors containing the same” (ONCOTHERAPY SCIENCE, INC., priority 2010, dated 2015).

One test relates to T47D cells. Nature of the test: Cell-based assay: anti-proliferative activity, Cell Counting Kit-8, 72 hours (T47D). The note with it: Homo sapiens, T47D, 72 h. Summed up: (§1)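 Proliferation read with Cell Counting Kit-8 after 72 hours of inhibitor treatment, from seeding of 2,000–3,000 cells/well. Lines: T47D, A549, BT-549; HT-1197, lacking MELK by western blot, served as negative control. IC50 derived.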

The test system of the next test is A549 cells. Nature of the test: Cell-based assay: anti-proliferative activity, Cell Counting Kit-8, 72 hours (A549). The settings on record: Homo sapiens, A549, 72 h, 72 hours. Summed up:
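A549 cells seeded in 96-well plates and exposed to candidate inhibitors for 72 hours. Growth measured with Cell Counting Kit-8; IC50 values calculated from the dose response.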
A general note: Tetrazolium assays rely on reduction of a dye to a coloured formazan, in cell work by metabolically active cells.

The target in another test is MELK (Homo sapiens, UniProt Q14680). Kind of test: Kinase assay: MELK activity, phosphorylation of FITC-labeled histone H3 peptide measured by IMAP fluorescence polarization. The test is classed as biochemical. The settings on record: read-out: IC50 (μM) (kinase assay). Summed up: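 Fluorescence polarization was measured 0.5 h (room temperature) after quenching with threefold volume of progressive binding solution. Test compounds from 12.5 mM DMSO stocks were assayed at 1% DMSO.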
MELK, sequence (Q14680 whole entry, looked up): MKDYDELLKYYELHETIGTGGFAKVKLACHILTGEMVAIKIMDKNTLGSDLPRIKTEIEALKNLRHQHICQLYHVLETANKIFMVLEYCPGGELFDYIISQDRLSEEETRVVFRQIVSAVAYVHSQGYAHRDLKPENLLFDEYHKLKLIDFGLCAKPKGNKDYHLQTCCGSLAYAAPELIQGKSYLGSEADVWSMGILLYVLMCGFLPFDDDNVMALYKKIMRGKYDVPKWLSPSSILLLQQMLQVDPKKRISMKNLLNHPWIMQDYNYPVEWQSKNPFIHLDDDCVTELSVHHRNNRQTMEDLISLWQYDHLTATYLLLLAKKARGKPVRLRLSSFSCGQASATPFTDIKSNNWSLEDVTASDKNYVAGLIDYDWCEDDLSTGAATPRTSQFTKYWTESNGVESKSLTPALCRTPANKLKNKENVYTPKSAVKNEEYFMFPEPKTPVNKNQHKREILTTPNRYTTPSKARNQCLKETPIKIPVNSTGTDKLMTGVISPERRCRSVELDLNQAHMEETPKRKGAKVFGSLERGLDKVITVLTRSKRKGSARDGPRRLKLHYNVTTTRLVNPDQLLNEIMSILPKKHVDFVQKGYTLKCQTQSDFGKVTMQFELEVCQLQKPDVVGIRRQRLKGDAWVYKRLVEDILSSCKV
A general note: Fluorescence polarisation rises when a labelled molecule tumbles more slowly, as on binding a larger partner.

In test [1] the test system is DU4475 cells. Kind of test: Cell-based assay: anti-proliferative activity, Cell Counting Kit-8, 72 hours (DU4475). The note with it: Homo sapiens, DU-4475, 72 h.
A further test relates to HT-1197 cells. Nature of the test: Cell-based assay: anti-proliferative activity, Cell Counting Kit-8, 72 hours (HT-1197, negative control without MELK expression). The settings on record: Homo sapiens, HT1197, 72 h, 72 hours. Summed up:
as §1

The subject of test [2] is DU4475 cells. Nature of the test: Cell-based assay: anti-proliferative activity, Cell Counting Kit-8, 72 hours (DU4475). The settings on record: Homo sapiens, DU-4475, 72 h. The source holds these as a separate data set.
Setting [3] is: HT1197 cells (negative control).
The mark [4] stands for this setting: HT1197 cells (negative control, no MELK expression).

A word on the IC50: it is the concentration that inhibits the measured activity by half. Consider `CN[C@H]1CC[C@H](Nc2c(C(=O)C3CC3)cnc3ccc(-c4cc(Cl)c(O)c(Cl)c4)cc23)CC1` [Example 510, Cyclopropyl{6-(3,5-dichloro-4-hydroxyphenyl)-4-[trans-4-(methylamino)cyclohexylamino]quinolin-3-yl}methanone], for which the half-maximal inhibitory concentration (IC50) worked out at 0.054 µM in the test with T47D cells; 0.12 µM in the test with A549 cells; 0.0019 µM on MELK; 0.018 µM in the test with DU4475 cells [1]; 1 µM with HT-1197 cells (setting [3]).

Turning to `O=C(c1cnc2ccc(-c3cc(Cl)c(O)c(Cl)c3)cc2c1Nc1cnn(C2CCNCC2)c1)C1CC1` [Example 511, cyclopropyl(6-(3,5-dichloro-4-hydroxyphenyl)-4-((1-(piperidin-4-yl)-1H-pyrazol-4-yl)amino)quinolin-3-yl)methanone], the IC50 in the test with T47D cells worked out at 0.18 µM; with A549 cells it was 0.31 µM; at MELK it was 0.017 µM; with DU4475 cells [1] it was 0.019 µM; in the test on HT-1197 cells (setting [3]), 10 µM.

`COc1cc(-c2ccc3ncc(C(=O)C4CC4)c(Nc4cnn(C5CCNCC5)c4)c3c2)cc(Cl)c1O` [Example 512, (6-(3-chloro-4-hydroxy-5-methoxyphenyl)-4-(1-(piperidin-4-yl)-1H-pyrazol-4-ylamino)quinolin-3-yl)(cyclopropyl)methanone]: the IC50 came out at 0.41 µM in the test with T47D cells; 0.3 µM in the test on A549 cells; 0.0022 µM at MELK; 0.31 µM with DU4475 cells [1]; 2.9 µM in the test with HT-1197 cells (setting [3]).

Take `COc1cc(-c2ccc3ncc(C(=O)C4CC4)c(N[C@H]4CC[C@@H](CN(C)C)CC4)c3c2)cc(Cl)c1O` [Example 513]: the 50% inhibitory concentration (IC50) with T47D cells stood at 0.19 µM; in the test on A549 cells, 0.099 µM; on MELK, 0.002 µM; in the test on DU4475 cells [1], 0.086 µM; in the test on HT-1197 cells (setting [3]), 3.8 µM.

For `CN(C)C[C@H]1CC[C@@H](Nc2c(C(=O)C3CC3)cnc3ccc(-c4cc(F)c(O)c(Cl)c4)cc23)CC1` [Example 514, (6-(3-chloro-5-fluoro-4-hydroxyphenyl)-4-((1s,4s)-4-((dimethylamino)methyl)cyclohexylamino)quinolin-3-yl)(cyclopropyl)methanone], the IC50 stood at 0.44 µM in the test with T47D cells; 0.26 µM in the test on A549 cells; 0.0028 µM at MELK; 0.21 µM in the test with DU4475 cells [1]; 0.77 µM in the test on HT-1197 cells (setting [3]).

Consider `NC[C@H]1CC[C@@H](Nc2c(C(=O)C3CC3)cnc3ccc(-c4cc(F)c(O)c(Cl)c4)cc23)CC1` [Example 515, (4-((1s,4s)-4-(aminomethyl)cyclohexylamino)-6-(3-chloro-5-fluoro-4-hydroxyphenyl)quinolin-3-yl)(cyclopropyl)methanone], for which the half-inhibitory concentration (IC50) in the test on T47D cells was 0.23 µM; with A549 cells, 0.83 µM; on MELK, 0.0034 µM; in the test on DU4475 cells [1], 0.12 µM; in the test on HT-1197 cells (setting [3]), 3.9 µM.

In the case of `COc1cc(-c2ccc3ncc(C(=O)C4CC4)c(C4=CCNCC4)c3c2)cc(Cl)c1O` [Example 516, (6-(3-chloro-4-hydroxy-5-methoxyphenyl)-4-(1,2,3,6-tetrahydropyridin-4-yl)quinolin-3-yl)(cyclopropyl)methanone], the IC50 was found to be 0.52 µM with T47D cells; 0.36 µM in the test with A549 cells; 0.0044 µM on MELK; 0.66 µM in the test with DU4475 cells [1]; 3 µM with HT-1197 cells (setting [3]).

Take `COc1cc(-c2ccc3ncc(C(=O)C4CC4)c(N[C@H]4CC[C@@H](CN(C)CC#N)CC4)c3c2)cc(Cl)c1O` [Example 518, 2-((((1R,4R)-4-(6-(3-chloro-4-hydroxy-5-methoxyphenyl)-3-(cyclopropanecarbonyl)quinolin-4-ylamino)cyclohexyl)methyl)(methyl)amino)acetonitrile]: the IC50 in the test with T47D cells is 0.16 µM; in the test on A549 cells it was 0.17 µM; at MELK, 0.013 µM; in the test on DU4475 cells [1] it was 0.078 µM; with HT-1197 cells (setting [3]), 3.4 µM.

On to `O=C(c1cnc2ccc(-c3ccc(O)c(Cl)c3)cc2c1Nc1cnn(C2CCNCC2)c1)C1CC1` [Example 519, (6-(3-chloro-4-hydroxyphenyl)-4-((1-(piperidin-4-yl)-1H-pyrazol-4-yl)amino)quinolin-3-yl)(cyclopropyl)methanone], for which the IC50 with T47D cells was 0.12 µM; with A549 cells it was 0.14 µM; at MELK, 0.003 µM; in the test on DU4475 cells [1], 0.1 µM; in the test on HT-1197 cells (setting [3]), 1.6 µM.

Regarding `O=C(c1cnc2ccc(-c3cc(F)c(O)c(Cl)c3)cc2c1Nc1cnn(C2CCNCC2)c1)C1CC1` [Example 520], the IC50 was 0.081 µM in the test with T47D cells; 0.52 µM in the test with A549 cells; 0.0016 µM on MELK; 0.042 µM with DU4475 cells [1]; 10 µM with HT-1197 cells (setting [3]).

Take `COc1cc(-c2ccc3ncc(C(=O)C4CC4)c(C4=CCN(C(=O)CN(C)C)CC4)c3c2)cc(Cl)c1O` [Example 521, 1-(4-(6-(3-chloro-4-hydroxy-5-methoxyphenyl)-3-(cyclopropanecarbonyl)quinolin-4-yl)-5,6-dihydropyridin-1(2H)-yl)-2-(dimethylamino)ethanone]: the 50% inhibitory concentration (IC50) worked out at 0.22 µM in the test on T47D cells; 0.18 µM with A549 cells; 0.0024 µM at MELK; 0.27 µM in the test with DU4475 cells [1]; 1.5 µM with HT-1197 cells (setting [3]).

For `CN[C@H]1CC[C@H](Nc2c(C(=O)C3CC3)cnc3ccc(-c4cnc(C#N)nc4)cc23)CC1` [Example 522], the IC50 with T47D cells came out at 0.23 µM; with A549 cells, 0.95 µM; at MELK it was 0.0014 µM; in the test with DU4475 cells [1], 0.91 µM; with HT-1197 cells (setting [3]), 1.1 µM.

As to `CN1CCN(C[C@H]2CC[C@H](Nc3c(C(=O)C4CC4)cnc4ccc(-c5cc(Cl)c(O)c(Cl)c5)cc34)CC2)CC1` [Example 618], the half-maximal inhibitory concentration (IC50) with T47D cells came out at 0.23 µM; in the test on A549 cells, 0.21 µM; with DU4475 cells [1], 0.12 µM; in the test on HT-1197 cells (setting [3]), 2.3 µM.

Take `NC1CCN(c2cc(Nc3c(C(=O)C4CC4)cnc4ccc(-c5cc(Cl)c(O)c(Cl)c5)cc34)ccn2)CC1` [Example 735, (4-(2-(4-aminopiperidin-1-yl)pyridin-4-ylamino)-6-(3,5-dichloro-4-hydroxyphenyl)quinolin-3-yl)(cyclopropyl)methanone]: the IC50 stood at 1 µM in the test on T47D cells; 3.5 µM in the test with A549 cells; 0.5 µM in the test on DU4475 cells [2]; 0.0041 µM on MELK; 20 µM in the test on HT-1197 cells (setting [4]).

In the case of `CCC(=O)c1cnc2ccc(-c3cc(F)c(O)c(Cl)c3)cc2c1Nc1ccc(N2CCN(C)CC2)nc1` [Example 736, 1-(6-(3-chloro-5-fluoro-4-hydroxyphenyl)-4-(6-(4-methylpiperazin-1-yl)pyridin-3-ylamino)quinolin-3-yl)propan-1-one], the IC50 in the test with T47D cells was 0.14 µM; in the test with A549 cells, 0.22 µM; in the test on DU4475 cells [2] it was 0.19 µM; on MELK it was 0.036 µM; with HT-1197 cells (setting [4]), 10 µM.

Consider `CCC(=O)c1cnc2ccc(-c3cc(Cl)c(O)c(Cl)c3)cc2c1Nc1ccc(N2CCN(C)CC2)nc1` [Example 737, 1-(6-(3,5-dichloro-4-hydroxyphenyl)-4-(6-(4-methylpiperazin-1-yl)pyridin-3-ylamino)quinolin-3-yl)propan-1-one], for which the IC50 stood at 0.31 µM in the test on T47D cells; 0.29 µM in the test on A549 cells; 0.27 µM with DU4475 cells [2]; 0.055 µM at MELK; 10 µM in the test with HT-1197 cells (setting [4]).

Turning to `COc1cc(-c2ccc3ncc(C(C)=O)c(N[C@H]4CC[C@H](CCN(C)C)CC4)c3c2)cc(Cl)c1O` [Example 738], the IC50 with T47D cells worked out at 0.51 µM; with A549 cells it was 0.34 µM; with DU4475 cells [2], 2.1 µM; on MELK, 0.0026 µM; in the test on HT-1197 cells (setting [4]) it was 7.8 µM.

For the compound `CC(=O)c1cnc2ccc(-c3cc(F)c(O)c(Cl)c3)cc2c1N[C@H]1CC[C@H](CCN(C)C)CC1` [Example 741, 1-(6-(3-chloro-5-fluoro-4-hydroxyphenyl)-4-((trans-4-(2-(dimethylamino)ethyl)cyclohexyl)amino)quinolin-3-yl)ethanone], the IC50 was 0.037 µM in the test on T47D cells; 0.085 µM in the test with A549 cells; 0.062 µM with DU4475 cells [2]; 0.0048 µM at MELK; 2 µM in the test on HT-1197 cells (setting [4]).

Turning to `COc1cc(-c2ccc3ncc(C(C)=O)c(Nc4ccc(CCN(C)C)cc4)c3c2)cc(Cl)c1O` [Example 743, 1-(6-(3-chloro-4-hydroxy-5-methoxyphenyl)-4-(4-(2-(dimethylamino)ethyl)phenylamino)quinolin-3-yl)ethanone], the half-inhibitory concentration (IC50) in the test on T47D cells worked out at 0.66 µM; in the test with A549 cells it was 0.53 µM; in the test on DU4475 cells [2], 0.36 µM; on MELK, 0.0042 µM; in the test with HT-1197 cells (setting [4]), 4.8 µM.

For `CC(=O)c1cnc2ccc(-c3cc(Cl)c(O)c(Cl)c3)cc2c1Nc1ccc(CCN(C)C)cc1` [Example 744, 1-(6-(3,5-dichloro-4-hydroxyphenyl)-4-(4-(2-(dimethylamino)ethyl)phenylamino)quinolin-3-yl)ethanone], the IC50 was 0.11 µM in the test with T47D cells; 0.082 µM in the test with A549 cells; 0.031 µM in the test with DU4475 cells [2]; 0.0017 µM at MELK; 0.43 µM with HT-1197 cells (setting [4]).

For the compound `CC(=O)c1cnc2ccc(-c3cc(F)c(O)c(Cl)c3)cc2c1Nc1ccc(CCN(C)C)cc1` [Example 745, 1-(6-(3-chloro-5-fluoro-4-hydroxyphenyl)-4-(4-(2-(dimethylamino)ethyl)phenylamino)quinolin-3-yl)ethanone], the IC50 with T47D cells was determined as 0.12 µM; in the test with A549 cells, 0.16 µM; with DU4475 cells [2], 0.063 µM; on MELK, 0.0083 µM; with HT-1197 cells (setting [4]), 0.99 µM.
